The values that follow come from patent US20020004518A1, “Method of treating disorders related to protease-activated receptors-induced cell activation” (priority 2000, published 2002).

One series deals with PARs. Nature of the series: Inhibition of platelet aggregation induced by PARs (thrombin-triggered, turbidimetric). The series is classed as cell-based. How it is done: A suitable in vitro inhibition assay can be used to preliminarily evaluate a fused pyrazolyl compound's ability to inhibit cell activation induced by PARs, which are pre-activated by thrombin. For example, a platelet suspension in Tyrode's solution can be prepared and incubated with a compound to be tested, thrombin added to trigger platelet aggregation, and the aggregation measured turbidimetrically with a light-transmission aggremometer. In vivo screening can be performed by following procedures well known in the art.
In vitro inhibitory activity of the fused pyrazolyl compounds was preliminarily evaluated by the following method: A platelet suspension in a Tyrode's solution was prepared according to a procedure described by Wu et al., Br. J Pharm., 1995, 116: 1973-1978. The Tyrode's solution had the following composition (mM): NaCl (136.8), KCl (2.8), NaHCO3 (11.9), MgCl2 (1.1), NaH2PO4 (0.33), CaCl2 (1.0), and glucose (11.2). The platelet number in the platelet suspension was adjusted to 4.5×10^8 platelets/mL with the aid of a Coulter Counter (Model ZM). […] Platelet aggregation was measured turbidimetrically with a light-transmission aggremometer. The extent of platelet aggregation was determined at 5 minutes after the addition of thrombin. The percentage of aggregation was calculated by the method described in Teng et al., Biochem. Biophys. […]

The subject of series [1] is platelet activating factors other than PARs. Nature of the series: Effect on platelet activating factors other than PARs. Conditions: selectivity versus other platelet activators. In kind it is cell-based.

For the compound `CCN(CC)Cc1ccc(-c2nn(Cc3ccccc3)c3ccccc23)o1` [Example 17, 1-benzyl-3-(5′-diethylaminomethyl-2′-furyl)indazole], in the series with PARs (platelet suspension in Tyrode's solution, 3 min preincubation at 37° C., thrombin added, aggregation read at 5 minutes), the “inhibitory activity on platelet aggregation” value is reported as “much higher activity”.
As a reminder, the melting point is the temperature, or range, at which the solid turns liquid. The compound `CCOC(=O)c1cccc(-c2nn(Cc3ccccc3)c3ccccc23)c1` [Example 19, 1-benzyl-3-(3′-ethoxycarbonylphenyl)indazole] registered a melting point of 85 to 86 °C. Also, the “activity relative to several other tested compounds, e.g. 1-benzyl-3-(4′-ethoxycarbonyl)phenyl-indazole” value in the series with PARs (thrombin-induced platelet aggregation, fold versus other tested compounds) is listed as “at least 10 times”. In series [1], the “effect on platelet activating factors other than PARs” value is “little or no effect”.
`O=C(O)c1ccc(-c2nn(Cc3ccccc3)c3ccccc23)cc1` [Example 20, 1-benzyl-3-(4′-hydroxycarbonylphenyl)indazole] came in with a melting point of 205 to 207 °C.
With `O=C(O)c1cccc(-c2nn(Cc3ccccc3)c3ccccc23)c1` [Example 21, 1-benzyl-3-(3′-hydroxycarbonylphenyl)indazole], the melting point is 190 to 192 °C.
`OCc1ccc(-c2nn(Cc3ccccc3)c3ccccc23)cc1` [Example 22, 1-benzyl-3-(4′-hydroxymethylphenyl)indazole] registered a melting point of 110 to 112 °C.
